This is an account of results in publication PMC4102529, “FRET Based Quantification and Screening Technology Platform for the Interactions of Leukocyte Function-Associated Antigen-1 (LFA-1) with InterCellular Adhesion Molecule-1 (ICAM-1)” (PLoS ONE, 2014).

Test [1] deals with human immunodeficiency virus type 1. The following applies: ref [59]; cited from earlier work.
For test [2], the system named is I-domain of LFA-1 (CD11a I-domain). The note with it: ref [58]; cited from earlier work. The source says: In our study, we identified three LFA-1 derived peptides, CD11a237–261, […], and CD11a456–465, to compare their inhibition efficiency via our steady-state FRET based competitive screening assay. Moreover, the inhibition efficiency of lovastatin, a well-known potent inhibitor of the ICAM-1 interaction, was also obtained to further validate the FRET screening platform. ...

The test system of test [3] is interaction of ICAM-1 with LFA-1. On the set-up: method as in PMID 12368073. The following applies: ref [34]; cited from earlier work. The source says: Based on these roles in several disease pathologies, the LFA-1/ICAM-1 interaction can serve as a potential therapeutic target in the development of new therapies for the autoimmune diseases, metastasis cancer, and viral diseases. […] Furthermore, several […] therapies were developed for the treatment of autoimmune diseases. However, […] therapies have serious side effects in humans due to their large molecular structure an ...

Test [4] deals with LFA-1/D1-D2-Fc (ICAM-1) interaction. Nature of the test: Steady-state FRET based competitive screening assay for inhibition of the LFA-1/D1-D2-Fc interaction. It is filed as binding, human. The following applies: for inhibition efficiency: 100 nM Alexa Fluor 488-LFA-1 + 100 nM Alexa Fluor 555-D1-D2-Fc, PBS, pH 7.4, 1 mM EGTA, 2 mM Mg^2+, 30 min, dark, calculated from FRET efficiency, Eq. (1); for FRET efficiency: mean ± rms, control without inhibitor 53.51 ± 0.10%, A/D = 2.12, excitation 470 nm, Eq. (3); for rank of inhibition efficiency among the three LFA-1 derived peptides: 0.02, 0.2, 2 and 20 µM. Here is the method:
But with increasing concentration of the lovastatin, the FRET efficiency decreased to 5.3% for 200 µM of lovastatin. The inhibition efficiency (%) was calculated for each concentration of lovastatin using the relation,
[drawing 1] (1) where Fcontrol is the FRET efficiency of the Alexa Fluor 488-LFA-1 and Alexa Fluor 555-D1-D2-Fc alone and Fx is that of the FRET mixture when incubated with inhibitors. The inhibition efficiency of lovastatin was calculated to be 69.48±0.77%, 73.84±0.56%, 84.98±0.10%, and 90.03±0.06% for 0.2, 2, 20, and 200 µM respectively [Fig. 7(a)].
To characterize and compare the inhibitory activity of the selected peptides, CD11a237–261, CD11a441–465, and CD11a456–465, the FRET mixture was incubated with several concentrations (0.02, 0.2, 2, and 20 µM) of the peptides (following the procedure described in the “Materials and Methods” section) and the FRET efficiency (Tables S3, S4, S5) and the inhibition efficiency [Fig. 7(b)] were calculated for each case. The inhibition efficiency for CD11a237–261 at 0.02, 0.2, 2, and 20 µM are 40.81±0.31%, 47.05±0.56%, 53.16±0.70%, 65.13±0.81%, respectively; the corresponding values for CD11a441–465, at the same concentrations, are 20.89±0.72%, 37.08±0.29%, 46.93±0.89%, 62.01±0.15%, respectively; and for CD11a456–465, the corresponding values are 12.17±0.91%, 20.26±0.69%, 36.46±0.42%, 51.41±0.33%. From these values, we note that the difference in inhibition efficiency of these three peptides is much more significant at low peptide concentration (on the order of 0.02 to 0.2 µM), the cause of which requires further investigation. Nevertheless, in all cases, the inhibition efficiency of CD11a237–261 is highest and CD11a456–465 the lowest, which are in good agreement with those reported in the literature.
The FRET efficiency can be adjusted by changing the fluorophore to protein ratio; the optimal acceptor to donor fluorophore (A/D) ratio was obtained following the procedure reported in the literature with slight modification. In short, A/D is defined as the number of the acceptor fluorophore molecules to donor molecule in the interacting protein complex. Several concentration ratios of Alexa Fluor 488-LFA-1 and Alexa Fluor 555-D1-D2-Fc were incubated for 30 minutes at room temperature and the FRET emission spectra were obtained via a fluorescence multiplate reader, Tecan Infinite M200 pro (Männedorf, Switzerland). For each concentration ratio, the concentration of the acceptor conjugate, Alexa Fluor 555-D1-D2-Fc, was kept constant. The optimal A/D ratio for the FRET pair was selected by comparing the FRET efficiencies for different A/D ratios. […] Due to these facts, we have used equation (3), [65] given below for the FRET efficiency (E) calculation which incorporates the cross-talk corrections for each of the A/D ratios. [drawing 3] (3) here, (λ470, λ) denotes the numerical integral of the emission spectrum between 560 and 610 nm when excited with 470 nm. fDA, fA, and fD represent the emission spectra of the FRET mixture, acceptor alone, and donor alone, respectively. The absorbance values of donor and acceptor, at the excitation maximum of Alexa Fluor 488 of 470 nm, is represented by A^D and A^A, respectively. […] In this article, the calculation was implemented assuming that there […] in the overlap integral with different F/P and the (associated) different A/D ratios. The optimal A/D ratio was used for the development of the FRET based screening platform for the assessment of peptides and small molecules for their inhibition efficiency of the LFA-1 and ICAM-1 interactions.
The donor, Alexa Fluor 488-LFA-1, with a concentration corresponding to the […] A/D ratio was mixed with each kind of LFA-1 derived peptides (CD11a237–261, CD11a441–465, and CD11a456–465) in PBS, pH 7.4, 1 mM EGTA and 2 mM Mg^2+. […]

For the compound `CC[C@H](C)C(=O)O[C@H]1C[C@@H](C)C=C2C=C[C@H](C)[C@H](CC[C@@H]3C[C@@H](O)CC(=O)O3)[C@H]21` [lovastatin, reference compound], the “effect on HIV-1 replication” value in test [1] is “reduction of human immunodeficiency virus type 1 replication”. For the same compound, the “binding to the I-domain of LFA-1” value in test [2] is “binds with the highly conserved I-domain of LFA-1”. The “inhibition of the interaction of ICAM-1 with LFA-1” value in test [3] was “specifically inhibits the interaction of ICAM-1 with LFA-1”. The inhibition efficiency is 69.48±0.77% in test [4] (0.2 µM inhibitor), 73.84±0.56% in test [4] (2 µM inhibitor), 84.98±0.10% in test [4] (20 µM inhibitor) and 90.03±0.06% in test [4] (200 µM inhibitor). Besides, the FRET efficiency in test [4] (0.2 µM inhibitor) worked out at 16.33 ± 0.76%; in test [4] (2 µM inhibitor) it was 14.00 ± 0.57%; in test [4] (20 µM inhibitor) it was 8.03 ± 0.01%; in test [4] (200 µM inhibitor), 5.3%; in test [4] (200 µM inhibitor, listed as Lovastatin), 5.33 ± 0.01%.

Consider “ITDGEATDSGNIDAAKDIIR-YIIGI [CD11a237–261, LFA-1α derived peptide, purchased from GenScript]”, for which the inhibition efficiency is 40.81±0.31% in test [4] (0.02 µM inhibitor), 47.05±0.56% in test [4] (0.2 µM inhibitor), 53.16±0.70% in test [4] (2 µM inhibitor) and 65.13±0.81% in test [4] (20 µM inhibitor). Further, the FRET efficiency in test [4] (0.02 µM inhibitor) was determined as 31.67 ± 0.06%; in test [4] (0.2 µM inhibitor), 28.33 ± 0.51%; in test [4] (2 µM inhibitor), 25.06 ± 0.66%; in test [4] (20 µM inhibitor) it was 18.66 ± 0.06%. Besides, the “rank of inhibition efficiency among the three LFA-1 derived peptides” value in test [4] was “highest inhibition efficiency”.

Regarding “APLFY- GEQRG [CD11a456–465, LFA-1α derived peptide, purchased from GenScript]”, the inhibition efficiency is listed as 12.17±0.91% in test [4] (0.02 µM inhibitor), 20.26±0.69% in test [4] (0.2 µM inhibitor), 36.46±0.42% in test [4] (2 µM inhibitor) and 51.41±0.33% in test [4] (20 µM inhibitor). Further, the FRET efficiency in test [4] (0.02 µM inhibitor) is 47.00 ± 0.81%; in test [4] (0.2 µM inhibitor), 42.67 ± 0.57%; in test [4] (2 µM inhibitor) it was 34.00 ± 0.08%; in test [4] (20 µM inhibitor) it was 26.00 ± 0.58%. For the same compound, the “rank of inhibition efficiency among the three LFA-1 derived peptides” value in test [4] was “the lowest”.

Turning to “GVDVDQDGETEL-IGAPLFYGEQRG [CD11a441–465, LFA-1α derived peptide, purchased from GenScript]”, the inhibition efficiency in test [4] (0.02 µM inhibitor) was 20.89±0.72%; in test [4] (0.2 µM inhibitor) it was 37.08±0.29%; in test [4] (2 µM inhibitor) it was 46.93±0.89%; in test [4] (20 µM inhibitor) it was 62.01±0.15%. The FRET efficiency in test [4] (0.02 µM inhibitor) was 42.33 ± 0.23%; in test [4] (0.2 µM inhibitor), 33.67 ± 0.51%; in test [4] (2 µM inhibitor), 28.40 ± 0.02%; in test [4] (20 µM inhibitor), 20.33 ± 0.53%.
